Active and inactive are the calls of the source. The rule behind the calls is not given here.
Key:
Format in all cases: cell-based
[1] = target: Estrogen receptor beta (Homo sapiens) (UniProt Q92731); assay: Activation of ERbeta (unknown origin) expressed in human U2OS cells at 0.2 uM in presence of 0.01 uM E2 incubated for 24 hrs by luciferase reporter gene assay
[2] = target: T1, Peroxisome proliferator-activated receptor gamma (Homo sapiens) (UniProt P37231); assay: Activation of PPARG (unknown origin) expressed in human U2OS cells at 0.2 uM in presence of 10 uM rosiglitazone incubated for 24 hrs by luciferase reporter gene assay
T1 sequence (whole entry): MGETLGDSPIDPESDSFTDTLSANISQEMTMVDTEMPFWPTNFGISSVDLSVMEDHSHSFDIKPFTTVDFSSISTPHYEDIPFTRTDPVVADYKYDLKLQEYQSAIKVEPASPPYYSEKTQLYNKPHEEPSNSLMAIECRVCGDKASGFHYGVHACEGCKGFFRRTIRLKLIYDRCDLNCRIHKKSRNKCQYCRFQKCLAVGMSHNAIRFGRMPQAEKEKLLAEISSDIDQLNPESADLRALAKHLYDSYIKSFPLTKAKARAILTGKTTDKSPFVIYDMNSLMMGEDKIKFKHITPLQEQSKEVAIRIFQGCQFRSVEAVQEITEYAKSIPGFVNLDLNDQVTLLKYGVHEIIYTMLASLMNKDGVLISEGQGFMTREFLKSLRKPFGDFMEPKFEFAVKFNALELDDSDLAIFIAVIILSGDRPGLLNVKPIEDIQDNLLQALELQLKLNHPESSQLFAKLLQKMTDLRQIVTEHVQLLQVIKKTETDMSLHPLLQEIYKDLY

[3] = target: T1, Peroxisome proliferator-activated receptor gamma (Homo sapiens); assay: Activation of PPARG (unknown origin) expressed in human U2OS cells at 0.2 uM incubated for 24 hrs by luciferase reporter gene assay
[4] = target: T2, Glucocorticoid receptor (Homo sapiens) (UniProt P04150); assay: Activation of glulcocorticoid receptor (unknown origin) expressed in human U2OS cells at 0.2 uM in presence of 0.1 uM dexamethasone incubated for 24 hrs by luciferase reporter gene assay
T2 sequence (whole entry): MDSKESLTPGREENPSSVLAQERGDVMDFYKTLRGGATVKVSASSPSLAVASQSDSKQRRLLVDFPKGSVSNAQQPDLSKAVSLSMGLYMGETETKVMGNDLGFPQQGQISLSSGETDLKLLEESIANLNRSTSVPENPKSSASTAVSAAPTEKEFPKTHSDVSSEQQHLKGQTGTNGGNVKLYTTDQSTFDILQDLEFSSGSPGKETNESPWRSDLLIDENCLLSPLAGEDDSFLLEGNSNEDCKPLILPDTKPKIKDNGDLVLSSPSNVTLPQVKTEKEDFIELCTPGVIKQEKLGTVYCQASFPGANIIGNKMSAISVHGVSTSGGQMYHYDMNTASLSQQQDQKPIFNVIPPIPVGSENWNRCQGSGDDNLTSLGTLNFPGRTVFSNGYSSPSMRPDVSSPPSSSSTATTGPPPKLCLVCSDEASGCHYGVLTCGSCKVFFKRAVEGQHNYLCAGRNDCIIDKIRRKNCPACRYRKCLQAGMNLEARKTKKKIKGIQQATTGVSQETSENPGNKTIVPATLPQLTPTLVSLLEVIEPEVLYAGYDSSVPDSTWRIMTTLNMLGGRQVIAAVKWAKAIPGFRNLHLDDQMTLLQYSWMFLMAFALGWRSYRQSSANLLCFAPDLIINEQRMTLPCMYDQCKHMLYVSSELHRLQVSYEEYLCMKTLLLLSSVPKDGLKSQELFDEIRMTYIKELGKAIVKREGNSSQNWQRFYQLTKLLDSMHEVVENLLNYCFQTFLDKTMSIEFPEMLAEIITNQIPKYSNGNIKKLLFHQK

[5] = target: T2, Glucocorticoid receptor (Homo sapiens); assay: Activation of glulcocorticoid receptor (unknown origin) expressed in human U2OS cells at 0.2 uM incubated for 24 hrs by luciferase reporter gene assay
[6] = target: T3, Estrogen receptor (Homo sapiens) (UniProt P03372); assay: Activation of ERalpha (unknown origin) expressed in human U2OS cells at 0.2 uM in presence of 0.01 uM E2 incubated for 24 hrs by luciferase reporter gene assay
T3 sequence (whole entry): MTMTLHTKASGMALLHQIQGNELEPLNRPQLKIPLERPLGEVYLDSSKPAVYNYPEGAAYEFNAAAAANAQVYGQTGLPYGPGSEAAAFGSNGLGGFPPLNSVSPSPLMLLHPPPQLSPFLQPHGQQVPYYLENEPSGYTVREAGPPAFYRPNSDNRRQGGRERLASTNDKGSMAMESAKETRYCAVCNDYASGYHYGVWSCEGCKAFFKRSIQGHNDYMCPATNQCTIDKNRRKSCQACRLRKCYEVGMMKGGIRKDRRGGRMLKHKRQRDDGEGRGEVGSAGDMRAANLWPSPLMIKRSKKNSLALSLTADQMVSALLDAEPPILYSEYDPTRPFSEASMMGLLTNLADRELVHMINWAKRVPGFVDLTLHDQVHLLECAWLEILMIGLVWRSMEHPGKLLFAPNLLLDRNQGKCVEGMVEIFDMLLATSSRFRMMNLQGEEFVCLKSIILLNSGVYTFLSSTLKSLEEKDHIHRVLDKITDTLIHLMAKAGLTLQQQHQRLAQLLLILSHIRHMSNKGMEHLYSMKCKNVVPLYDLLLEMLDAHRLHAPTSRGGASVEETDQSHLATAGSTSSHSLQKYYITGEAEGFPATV

[7] = target: Estrogen receptor beta (Homo sapiens) (UniProt Q92731); assay: Activation of ERbeta (unknown origin) expressed in human U2OS cells at 0.2 uM incubated for 24 hrs by luciferase reporter gene assay
[8] = target: T3, Estrogen receptor (Homo sapiens); assay: Activation of ERalpha (unknown origin) expressed in human U2OS cells at 0.2 uM incubated for 24 hrs by luciferase reporter gene assay
[9] = target: T2, Glucocorticoid receptor (Homo sapiens); assay: Activation of glulcocorticoid receptor (unknown origin) expressed in human U2OS cells at 1 uM in presence of 0.1 uM dexamethasone incubated for 24 hrs by luciferase reporter gene assay
[10] = target: T1, Peroxisome proliferator-activated receptor gamma (Homo sapiens); assay: Activation of PPARG (unknown origin) expressed in human U2OS cells at 1 uM incubated for 24 hrs by luciferase reporter gene assay
[11] = target: Estrogen receptor beta (Homo sapiens) (UniProt Q92731); assay: Activation of ERbeta (unknown origin) expressed in human U2OS cells at 1 uM incubated for 24 hrs by luciferase reporter gene assay
[12] = target: T3, Estrogen receptor (Homo sapiens); assay: Activation of ERalpha (unknown origin) expressed in human U2OS cells at 1 uM in presence of 0.01 uM E2 incubated for 24 hrs by luciferase reporter gene assay
[13] = target: T3, Estrogen receptor (Homo sapiens); assay: Activation of ERalpha (unknown origin) expressed in human U2OS cells at 1 uM incubated for 24 hrs by luciferase reporter gene assay
[14] = target: T2, Glucocorticoid receptor (Homo sapiens); assay: Activation of glulcocorticoid receptor (unknown origin) expressed in human U2OS cells at 1 uM incubated for 24 hrs by luciferase reporter gene assay
[15] = target: T1, Peroxisome proliferator-activated receptor gamma (Homo sapiens); assay: Activation of PPARG (unknown origin) expressed in human U2OS cells at 1 uM in presence of 10 uM rosiglitazone incubated for 24 hrs by luciferase reporter gene assay
[16] = target: Estrogen receptor beta (Homo sapiens) (UniProt Q92731); assay: Activation of ERbeta (unknown origin) expressed in human U2OS cells at 1 uM in presence of 0.01 uM E2 incubated for 24 hrs by luciferase reporter gene assay

Estrogen receptor beta (Homo sapiens), sequence (Q92731 whole entry): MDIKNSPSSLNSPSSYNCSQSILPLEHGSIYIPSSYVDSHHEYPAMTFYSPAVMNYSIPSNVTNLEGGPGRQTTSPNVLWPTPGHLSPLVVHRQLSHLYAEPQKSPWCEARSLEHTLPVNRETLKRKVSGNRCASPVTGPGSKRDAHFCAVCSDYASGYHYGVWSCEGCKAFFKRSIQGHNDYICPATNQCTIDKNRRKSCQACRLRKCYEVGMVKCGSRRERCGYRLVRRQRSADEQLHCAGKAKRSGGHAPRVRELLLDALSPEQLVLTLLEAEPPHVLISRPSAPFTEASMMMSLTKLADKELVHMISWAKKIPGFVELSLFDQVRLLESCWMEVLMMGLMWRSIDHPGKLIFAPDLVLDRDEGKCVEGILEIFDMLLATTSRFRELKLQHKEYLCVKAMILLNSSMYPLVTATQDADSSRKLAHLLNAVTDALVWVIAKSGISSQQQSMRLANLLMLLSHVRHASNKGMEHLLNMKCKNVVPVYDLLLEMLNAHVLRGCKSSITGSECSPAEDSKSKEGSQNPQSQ

Row | Activity [1] | Activity [2] | Activity [3] | Activity [4] | Activity [5] | Activity [6] | Activity [7] | Activity [8] | Activity [9] | Activity [10] | Activity [11] | Activity [12] | Activity [13] | Activity [14] | Activity [15] | Activity [16] | Structure (SMILES)
1 | Active | Active | Active | Active | Active | Active | Active | Active |  |  |  |  |  |  |  |  | CC(/C=C/C(=O)NO)=C\[C@@H](C)C(=O)c1ccc(N(C)C)cc1
2 |  |  |  |  |  |  |  |  | Active | Active | Active | Active | Active | Active | Active | Active | Nc1cc(F)ccc1NC(=O)c1ccc(CNC(=O)/C=C/c2cccnc2)cc1
3 |  |  |  |  |  |  |  |  | Active | Active | Active | Active | Active | Active | Active | Active | Nc1ccccc1NC(=O)c1ccc(CNC(=O)OCc2cccnc2)cc1

From ChEMBL document CHEMBL3880423, “Benzamide derivatives as histone deacetylase inhibitors with potent differentiation and anti-proliferation activity” (2009)
